# Reference: patent publication US20090203775A1, “Novel compound and a novel microorganism for producing the novel compound” (Haiyi Biotech Pte, Ltd., priority 2005, published 2009)
# Where two headings read alike, the source gives them in different places.
# How the values were obtained:
# [1] = test system: Coxsakie B3 virus; assay: organism not typed; assay type: cell-based; settings: for IC50: read-out: IC50 (half inhibitory concentration for the virus)
# Protocol: Treatment of the sample: The sample was first dissolved in DMSO to appropriate concentration. The sample solutions were then diluted the samples in culture medium solution to obtain eight concentrations.
# (§1) Methods: The Veo cells were cultured in 96-well plates. The cells were infected with Coxsakie B3 virus for 2 hours after 24 hours of incubation. The solution containing the virus was then discarded. The samples were then added into the wells at the concentrations with the appropriate controls. The cell pathological extent (CPE) was observed 36 hours later. The half inhibitory concentration (IC50) was calculated by using the method of Reed-Muench.
# (§2) (1) “-” means that the sample has no anti Coxsakie B3 virus effect at the maximal dose with no toxicity. (2) TC50 indicates the half toxic concentration; IC50 indicates the half inhibitory concentration for the virus; SI indicates the selective index, calculated as the follow: SI=TC50/IC50
# [2] = test system: A2780 (human ovary cancer cells); assay: MTT assay, percentage of killing, A2780; assay type: cell-based; settings: 24~48 hours
# Protocol: (§3) 1. Method: 3-[4,5-dimethyl(thiazol-2-yl)-3,5-diphery] tetradium bromide (MTT) assay. 2. Culture medium: RPMI-1640 medium containing 2% calf serum 3. Apparatus: (1) CO2 incubator, Sherton USA; (2) 318MC Enzyme analysis machine, SANCO Equipments Company Ltd. 4. Conditions of the culture: Temp. 37° C.; Concentration of CO2: 4.7%, culture duration: 24˜48 hours.
# [3] = test system: T. mentagrophytes; assay: Germicidal effect, MTT assay, T. mentagrophytes; assay type: cell-based
# Protocol: (§4) Aims: To observe the germicidal effect of the compound of formula (I) on T. rubrum, T. mentagrophytes, C. albicans and B. subtilis. Method: […] Concentration of the samples were: (1) 2 mg/ml; (2) 1 mg/ml; (3) 0.5 mg/ml; (4) 0.25 mg/ml; Volume of the sample: 50 ul/well.
# [4] = test system: human stomach cancer cells MGC-803; assay: Nude mouse transplanted with human stomach cancer MGC-803, tumor growth inhibition; assay type: in vivo, BALB/cA nude mice
# Protocol: Aim: To observe the growth inhibitory effect and the intensity of the effect of the compound of formula (I) in nude mouse transplanted with human stomach cancer cells MGC803.
# Material: The lyophilized injection powder of the compound of formula (I), 15 mg/vial, diluted to the needed concentration by 0.9% saline before use.
# Dosages: the dosages of the compound of formula (I) are 15, 10 and 5 mg/kg.
# Animals: BALB/cA nude mice, female, 40˜45-days old, body weight is 18±2 g. The number of the animals in per group: negative control: 12; group with drug: 6.
# Transplanted tumor: Human stomach cancer MGC-803 cells were transplanted into the nude mice as follows. Approximately half a million […] of the MGC-803 cells was injected subcutaneously (s.c.) into the mice. The tumors were used after breeding the mice for three generations.
# Methods: Tumors in peak growth were cut into the sizes of around 1.5 mm^3. Under aseptic conditions the tumours were injected subcutaneously to the right axilla of the mouse. The size of the transplanted tumor is then measure and the animals randomly divided into several groups when the size of the tumor reaches 100-200 mm^3. The drug is administered by intravenous (i.v.) injection on the 1st and 6th days. Saline is administered as control. The size of the tumor is examined every two weeks together with the weight of the mouse. The tumor volume(TV) is calculated as:
# Where, a and b represent length and width, respectively. The relative tumor volume (RTV) is calculated as: RTV=Vt/V0, where V0 is the volume of the tumor before administering the compound, Vt is the volume of the tumor after administering the compound. The index for evaluating the activity of anticancer is the relative growth rate of tumor (T/C), which is calculated as: […]
# wherein, TRTV is the administering group; CRTV is the control group.
# The standard for evaluating the treatment effect: T/C (%)>60% means no effect, T/C<=60% and p<0.05 means having a significant effect.
# [5] = test system: B16 (mouse melanocytoma cells); assay: MTT assay, percentage of killing, B16; assay type: cell-based; settings: 24~48 hours
# Protocol: as §3
# [6] = test system: L1210, a kind of lymph leukemia cell; assay: Ex vivo treatment of L1210 cells, then i.p. injection into mice; assay type: in vivo, BDF-1 mice
# Protocol: Control: 6 BDF-1 mice, male, administer to each mouse 1×10^8 L1210, a kind of lymph leukemia cell, by intraperitoneal (i.p.) injection, (without the compound of formula (I) treatment); results are shown in FIG. 11.
# Ex vivo test group: 6 BDF-1 mice, male, administer to each mouse 1×10^8 L1210 cells by i.p. injection, wherein the L1210 were treated with the compound of formula (I). The method of treating cells ex vivo: The concentration of the lyophilized powder injection of the compound of formula (I) is 7.5 mg/ml. It was diluted to 150 ug/ml with saline solution. A volume of 67 ul of the diluted injection solution is mixed with 1.5 ml L1210 cells and 0.433 ml saline to obtain in each […] of L1210 cells to contain 5 ug the compound. The mixture is placed at the room temperature for two hours.
# [7] = test system: C. albicans; assay: Germicidal effect, MTT assay, C. albicans; assay type: cell-based
# Protocol: as §4
# [8] = test system: L1210 (mouse leukemia cells); assay: MTT assay, percentage of killing, L1210; assay type: cell-based; settings: 24~48 hours
# Protocol: as §3
# [9] = test system: B. subtilis; assay: Germicidal effect, MTT assay, B. subtilis; assay type: cell-based
# Protocol: as §4
# [10] = test system: T. rubrum, T. mentagrophytes, C. albicans and B. subtilis; assay: Germicidal effect, MTT assay, summary statement for all strains; assay type: cell-based; settings: ≧50 μg/well; summary for the strains of Table 8
# Protocol: as §4
# [11] = test system: MGC (human stomach cancer cells); assay: MTT assay, percentage of killing, MGC; assay type: cell-based; settings: 24~48 hours
# Protocol: as §3
# [12] = test system: Eca-109 (esophageal cancer cells); assay: MTT assay, percentage of killing, Eca-109; assay type: cell-based; settings: for percentage of killing: MTT, 24~48 hours
# Protocol: as §3
# [13] = test system: L1210 (mouse lymph leukemia cells); assay: Survival of mice transplanted with L1210; assay type: in vivo, BDF-1 mice; settings: d 1, d 6, s.c.; for duration of survival (Ave): control 15
# Protocol: Aims: To observe the effect of prolonging the survival of the compound of formula (I) on mice transplanted with L1210, a kind of mouse lymph leukemia cells.
# Methods: 18 BDF-1 mice, male. L1210 (mouse lymph leukemia cells) were administered by i.p. injection, at the dose of 1×10^5 per mouse. Mice were divided into three groups randomly, with six animals per group. The test group was administered with the drug on day 1 and day 6 by subcutaneous (s.c.) injection. An equal volume of saline was administered in control animals.
# Dosage: Test group 1: 50 mg/kg the lyophilized powder injection of the compound of formula (I) was administered by s.c. injection, • Test group 2: 25 mg/kg the lyophilized powder injection of the compound of formula (I) was administered by s.c. injection, • Test group 3: 12.5 mg/kg the lyophilized powder injection of the compound of formula (I) was administered by s.c. injection.
# [14] = test system: Veo cells; assay: Half toxic concentration in the antiviral test cells; assay type: cell-based
# Protocol: as §1, §2
# [15] = test system: T. rubrum; assay: Germicidal effect, MTT assay, T. rubrum; assay type: cell-based
# Protocol: as §4
compound,measurement,setting,value
"NC(=O)c1ncn([C@@H]2O[C@H](CO)[C@@H](O)[C@H]2O)n1 [RBV, Ribavirin, reference compound]",IC50,[1]; 36 h,448 µg/mL
O=C1CC[C@H](c2ccc(O)c3c2C(=O)C2OC2[C@H]3O)c2cccc(O)c21 (stereo partly shown) [compound of formula (I)],percentage of killing,"[2]; A2780, 312.5 ng/ml",0%
same,percentage of killing,"[2]; A2780, 625 ng/ml",35.31%
same,percentage of killing,"[2]; A2780, 1.25 ug/ml",46.5%
same,percentage of killing,"[2]; A2780, 2.5 ug/ml",73.08%
same,percentage of killing,"[2]; A2780, 5 ug/ml",90.91%
same,Gemicidal effect (killing rate),[3]; 12.5 μg/ml,60%
same,Gemicidal effect (killing rate),[3]; 25 μg/ml,82%
same,Gemicidal effect (killing rate),[3]; 50 μg/ml,99.5%
same,Gemicidal effect (killing rate),[3]; 100 μg/ml,100%
same,growth inhibitory effect (in words),"[4]; 15 mg/kg on day 1 and day 6, i.v., T/C<=60% and p<0.05 means significant effect",significant growth inhibitory effect
same,weight(g) final,"[4]; 15 mg/kg, d 1, d 6, i.v., lyophilized powder, body weight of mice, final",17.2 g
same,weight(g) Initial,"[4]; 15 mg/kg, d 1, d 6, i.v., lyophilized powder, body weight of mice, initial",18.3 g
same,T/C (%),"[4]; 15 mg/kg, d 1, d 6, i.v., relative growth rate of tumor, TRTV/CRTV x 100",0.18%
same,RTV,"[4]; 15 mg/kg, d 1, d 6, i.v., relative tumor volume Vt/V0",0.02 ± 4.3
same,complete disappearance of tumor,"[4]; 15 mg/kg, d 1, d 6, i.v., three weeks after the treatment, 6 mice",the tumor in one mouse disappeared completely
same,TV(mm^3) d 0,"[4]; 15 mg/kg, d 1, d 6, i.v., tumor volume before treatment",102 ± 22 mm^3
same,TV(mm^3) d 21,"[4]; 15 mg/kg, d 1, d 6, i.v., tumor volume d 21",2.2 ± 0.04 mm^3
same,percentage of killing,"[5]; B16, 312.5 ng/ml",1.06%
same,percentage of killing,"[5]; B16, 625 ng/ml",6.37%
same,percentage of killing,"[5]; B16, 1.25 ug/ml",0%
same,percentage of killing,"[5]; B16, 2.5 ug/ml",51.75%
same,percentage of killing,"[5]; B16, 5 ug/ml",72.53%
same,duration of survival,"[6]; 6 BDF-1 mice given 1×10^8 L1210 cells i.p., cells treated ex vivo with 5 ug compound, two hours, room temperature, controls died at 12-15 days",after 60 days
same,others (symptoms),[6]; 6 BDF-1 mice given compound-treated L1210 cells i.p.,no symptom
same,killing of L1210 ex vivo (in words),"[6]; L1210 treated ex vivo with 5 ug compound, two hours, room temperature",killed completely
same,Gemicidal effect (killing rate),[7]; 12.5 μg/ml,50%
same,Gemicidal effect (killing rate),[7]; 25 μg/ml,75%
same,Gemicidal effect (killing rate),[7]; 50 μg/ml,99%
same,Gemicidal effect (killing rate),[7]; 100 μg/ml,99.5%
same,percentage of killing,"[8]; L1210, 312.5 ng/ml",0%
same,percentage of killing,"[8]; L1210, 625 ng/ml",0%
same,percentage of killing,"[8]; L1210, 1.25 ug/ml",17.02%
same,percentage of killing,"[8]; L1210, 2.5 ug/ml",94.18%
same,percentage of killing,"[8]; L1210, 5 ug/ml",97.00%
same,selectivity ratio at 36 h,"[1]; African green monkey, Veo cells infected with Coxsakie B3 virus, Coxsakie B3 virus in Veo cells, read-out: SI (selective index, TC50/IC50)",2.88
same,IC50,"[1]; Coxsakie B3 virus in Veo cells, CPE after 36 hours, Reed-Muench",8.56 µg/mL
same,Gemicidal effect (killing rate),[9]; 12.5 μg/ml,65%
same,Gemicidal effect (killing rate),[9]; 25 μg/ml,85%
same,Gemicidal effect (killing rate),[9]; 50 μg/ml,99%
same,Gemicidal effect (killing rate),[9]; 100 μg/ml,100%
same,antifungal effects,[10],99.9%
same,percentage of killing,[11]; 312.5 ng/ml,0%
same,percentage of killing,[11]; 625 ng/ml,40.98%
same,percentage of killing,[11]; 1.25 ug/ml,42.32%
same,percentage of killing,[11]; 2.5 ug/ml,64.37%
same,percentage of killing,[11]; 5 ug/ml,85.52%
same,percentage of killing,"[12]; Eca-109, 312.5 ng/ml",0%
same,percentage of killing,"[12]; Eca-109, 625 ng/ml",0%
same,percentage of killing,"[12]; Eca-109, 1.25 ug/ml",0%
same,percentage of killing,"[12]; Eca-109, 2.5 ug/ml",0%
same,percentage of killing,"[12]; Eca-109, 5 ug/ml",0.18%
same,effect on Eca-109 (in words),"[12]; Eca-109, MTT",no effect
same,prolonging days,[13]; 12.5 mg/kg,5 days
same,rate of prolonging (%),[13]; 12.5 mg/kg,33%
same,duration of survival (Ave),[13]; 12.5 mg/kg,20
same,prolonging days,[13]; 25 mg/kg,7 days
same,rate of prolonging (%),[13]; 25 mg/kg,47%
same,duration of survival (Ave),[13]; 25 mg/kg,22
same,prolonging days,[13]; 50 mg/kg,13 days
same,rate of prolonging (%),[13]; 50 mg/kg,87%
same,duration of survival (Ave),[13]; 50 mg/kg,28
same,TC50 (half toxic concentration),[14],24.7 µg/mL
same,Gemicidal effect (killing rate),[15]; 12.5 μg/ml,58%
same,Gemicidal effect (killing rate),[15]; 25 μg/ml,80%
same,Gemicidal effect (killing rate),[15]; 50 μg/ml,99%
same,Gemicidal effect (killing rate),[15]; 100 μg/ml,100%
